Measured values from patent US20250195498A1, “INHIBITOR OF CELLULAR PURINE NUCLEOTIDE SALVAGE PATHWAY ENZYME FOR USE IN THE TREATMENT AND/OR PREVENTION OF HELICOBACTER PYLORI INFECTION AND/OR DISEASE ASSOCIATED WITH SUCH INFECTION AND PHARMACEUTICAL COMPOSITION COMPRISING THE SAME” (UNIWERSYTET WARSZAWSKI, priority 2022, published 2025).
Values after ≈ are worked out from the molar mass of the structure shown. Values joined by “and” are separate entries in the source; they are usually repeats but may differ in a detail not shown here. Equal values may be shown once. Read-outs that look alike come from different tables or passages of the source.

Assays:
Assay type in all cases: cell-based, Helicobacter pylori
[1] = system: H. pylori strain M26 (MTZ + CLR resistant); experiment: Growth curve method / MIC, resistant strain M26; conditions: Helicobacter pylori, strain M26, MTZ + CLR resistant
Protocol: (§1) The representative PNP inhibitor from H. pylori included in this study was immucillin A. The experiment was conducted using the growth curve method (two-fold serial dilutions in liquid medium). The tested H. pylori strains were cultured in Petri dishes with BHI solid medium supplemented with 10% FBS and 1% H. pylori Selective Supplement antibiotic kit, in anaerostats under microaerophilic conditions (5% 02, 10% CO2, 85% N2) at 37° C. for 3 days. Liquid culture of H. pylori was conducted overnight with shaking at 37° C. under microaerophilic conditions in BHI medium supplemented with 10% FBS and 1% H. pylori Selective Supplement antibiotic kit. Subsequently, for the essential experiment of determining the minimum inhibitory concentration (MIC), double strengthened liquid BHI medium was prepared, that is, supplemented with 20% FBS and a 2% set of H. pylori Selective Supplement antibiotics.
(§2) Bacterial proliferation inhibition experiments were carried out in 24-deep-well 2 ml flat-bottomed plates at a solution volume per well of 0.5 ml. In a single well, double strengthened (relative to the concentration planned for testing) solutions of the test inhibitor and double strengthened liquid BHI medium inoculated with H. pylori (10^4-10^5 CFU/ml in the final volume in the well, corresponding to the optical density of the culture OD600=0.05) were mixed together in a 1:1 ratio.
(§3) Kanamycin at a concentration of 25 μg/ml (Irie et al., 1997) was used as a positive control, while Mili-Q deionized water and BHI medium not inoculated with bacteria were used as negative controls. Plates were shaken at 37° C., under microaerophilic conditions. […] After 24 hours, the OD600 of samples containing the negative control, i.e. with Mili-Q deionized water, was about 1.2-1.4, corresponding to a bacterial concentration of about […].
(§4) In addition, the method proposed by Knezevic et al. (2018) was used to check whether the observed OD600 was from live bacterial cells. For this purpose, an equal volume of Christensen's double strength urea broth (that is, containing twice the concentration of all components) was added to the wells after incubation, and the plates were additionally incubated for 4 hours in an oxygen atmosphere at 37° C. During incubation, in wells with urease produced by live bacteria, urea is converted to ammonia and carbon dioxide, changing the pH of the solution and thus the colour of the phenol red indicator contained in the medium (from orange to purple).
(§5) All experiments were performed in triplicate.
(§6) The antibacterial activity of two compounds, mefloquine (in the form of hydrochloride) and quinine, described in the literature as potent in vitro inhibitors of the PNP enzyme from Plasmodium falciparum (Dziekan et al., 2019), was tested. Using a two-fold serial dilution method in liquid medium (as described in Example 3), the MIC values for mefloquine and quinine were determined against clinical H. pylori strains resistant to MTZ, CLR and MTZ+CLR (M26, M91, M92 and M93), as well as the reference H. pylori strain 26695. Four clinical H. pylori strains isolated from adults, from primary infections (the subjects had never previously been treated against H. pylori infection) were tested. These strains come from the collection of the Department of Microbiology of the Medical University of Wroclaw and were obtained due to collaboration with Prof. Grażyna Gościniak, MD, PhD. The tested compounds belong to organic substances and are soluble in DMSO. The maximum tested concentration of quinine in H. pylori culture was 0.56 mM, and that of mefloquine was 2.25 mM. […] On each occasion, the effect of DMSO alone on the growth of the H. pylori strains tested was also checked. […] Kanamycin was used as a positive control and Mili-Q deionised water as a negative control. All experiments were carried out in triplicate. […]

[2] = system: H. pylori strain M92 (CLR resistant); experiment: Growth curve method / MIC, resistant strain M92; conditions: Helicobacter pylori, strain M92, CLR resistant
Protocol: as §1, §2, §3, §4, §5, §6

[3] = system: H. pylori strain N6; experiment: Growth curve method / MIC, strain N6; conditions: Helicobacter pylori
Protocol: as §1, §2, §3, §4, §5
Inhibition by PLP and its metabolic precursors of the growth of H. pylori strains: 26695, N6 and P12 in culture was investigated using the growth curve method as described in Example 3. From these experiments, the minimum inhibitory concentration was determined as the lowest concentration of a compound that inhibits the visible growth of the bacteria, compared to growth in control samples without the tested compounds. All experiments were carried out in triplicate.

[4] = strain N6, wild-type, read-out: MIC (Table 7)

In the case of `Cc1ncc(CO)c(C=O)c1O.Cl` [PI-h, pyridoxal hydrochloride], the MIC ([1]; read-out: MIC) is reported as 255 µg/mL and 1250 µM, the MIC ([1]; read-out: MIC (Table 7)) is reported as 1.25 µM and the MIC ([2]; read-out: MIC) is reported as 509 µg/mL and 2500 µM. The MIC ([2]; read-out: MIC (Table 7)) was 2.5 µM, the MIC [3, 4] was 2.5 µM and the MIC ([3]; strain N6, read-out: MIC) was 509 µg/mL and 2500 µM.

With `Cc1ncc(COP(=O)(O)O)c(C=O)c1O` [PLP, pyridoxal 5′-phosphate] the MIC ([1]; read-out: MIC) was 309 µg/mL and 1250 µM, the MIC ([1]; read-out: MIC (Table 7)) was 1.25 µM and the MIC ([2]; read-out: MIC) was 309 to 618 mg/L. The MIC ([2]; read-out: MIC (Table 7)) was 1.25 to 2.5 µM, the MIC [3, 4] was 2.5 µM (≈ 0.618 µg/mL) and the MIC ([3]; strain N6, read-out: MIC) was 618 µg/mL and 2500 µM.
